Reference: patent publication US8596358B2, “Well treatment” (Statoil ASA, priority 2004, dated 2013)
Converted amounts (≈) assume the structure as drawn.

How the values were obtained:
[1] = test system: fish; assay: Fish toxicity (LC50 fish); conditions: in vivo
Text: (§1) Materials for use in the invention include organosilanes, for example organosilane hydrides, organosilane alkoxides and organosilane amines. Organosilane compounds have the advantage that they are typically oil-soluble and react with water. […] Organosilanes for use in the invention preferably have a biodegradability of at least 60%. Whilst not wishing to be bound by theory, it is believed that organosilane compounds react with water and hydrolyse. The resulting chemicals then react with siliceous surfaces in the formation (e.g. the surface of silica sand), coat any sand particles, bind them in place by the formation of bridges and restrict their movement. The advantage of bifunctional organosilanes is their ability to bind two particles together.

[2] = Biodegradability according to OECD 306; conditions: as tested according to OECD 306
Text: as §1

[3] = test system: daphnia; assay: Daphnia toxicity (EC50 daphnia); conditions: in vivo
Text: as §1

[4] = test system: algae; assay: Algae toxicity (IC50 algae); type: cell-based
Text: as §1

Question: Which LC50 fish [1] does the source give for `CCO[Si](CCCN)(OCC)OCC` [DYNASYLAN AMEO, 3-amino-propyltriethoxysilane] here?
Answer: Its LC50 fish is 934 µg/mL (≈ 4220 µM).

Question: And the biodegradability [2]?
Answer: Its biodegradability is 67%.

Question: For `CCO[Si](CCCNCCC[Si](OCC)(OCC)OCC)(OCC)OCC` [DYNASYLAN bis-AMEO], which LC50 fish [1] is on record?
Answer: Its LC50 fish is > 200 µg/mL.

Question: What about the EC50 daphnia [3] of the same molecule?
Answer: Its EC50 daphnia is > 200 µg/mL.

Question: What about the IC50 algae [4] of the same molecule?
Answer: Its IC50 algae is 125 µg/mL (≈ 294 µM).
